Experimental data published in patent US11027027B2, “Pyridazinoindole compounds and methods for PET imaging” (Vanderbilt University, priority 2015, dated 2021).
Where two headings read alike, the source gives them in different places.

Assays:
TSPO [1] = target: T1, TSPO (Rattus norvegicus, UniProt P16257); test: Binding affinity to TSPO of fluorescent probes
Description: Binding affinity to TSPO of fluorescent probes 23-29.

TSPO [2] = target: T1, TSPO; test: TSPO radiometric binding assay, kidney lysate, displacement of [3H]PK11195
Procedure: (§1) Affinities are expressed as Ki±S.E.M. (pM) in Table 1. All experiments were performed in triplicate.
(§2) Male Wistar rats were sacrificed and the heart and kidney collected and dissected. The tissues were homogenized in 20 volumes of ice-cold PBS buffer (pH 7.4) with a Brinkmann microhomogenizer (Kinematica AG, Luzern, SW). The homogenate was collected at a protein concentration of 5.0 mg/mL and stored at −80° C. C6 cells were collected and washed with PBS buffer three times, and then frozen and thawed three times in lysis buffer (5.0 mM HEPES, 0.21 M D-mannitol, 0.07 M sucrose, 2.0 mM benzamidine, 2.0 mM toluenesulfonyl fluoride, 4.0 mM MgCl2, pH 7.4) to produce C6 cell lysate (0.5 mg/mL). […] The reaction was terminated by rapid filtration through a Brandel harvester (Gaithersburg, Md., USA) and collection onto a filter presoaked with 0.3% polyethyleneimine. Filters were then punched out into scintillation vials and bound radioactivity measured on a Beckman LS 6000 Scintillation Counter (Brea, Calif., USA). […] All experiments were performed in triplicate.

TSPO [3] = target: T1, TSPO; design: frozen and thawed three times in lysis buffer; endogenous in cells; host or cells: C6 rat glioma cells; settings: cited from earlier work
TSPO [4] = target: T1, TSPO; test: TSPO radiometric binding assay, heart lysate, displacement of [3H]PK11195
Procedure: as §1, §2

TSPO [5] = target: T1, TSPO; test: TSPO radiometric binding assay, C6 glioma cell lysate, displacement of [3H]PK11195; design: frozen and thawed three times in lysis buffer; endogenous in cells; host or cells: C6 rat glioma cells
Procedure: as §1, §2

[6] = target: central benzodiazepine receptor (CBR); settings: value used to calculate Ki; read-out: Kd for flunitrazepam; cited from earlier work
C6 glioma = test: Dynamic microPET imaging of tracer uptake in C6 glioma-bearing rats; assay type: in vivo, rat
Procedure: (§3) Uptake Characteristics of [^18F]-14 in C6 Glioma. The in vivo performance of [^18F]-14 was evaluated in glioma-bearing (C6), male Wistar rats using microPET imaging, with a typical study shown in FIG. 1. MRI (T2-weighted) was used to localize tumors and for registration of anatomical features with PET (FIG. 1A).^11,12,18 Dynamic PET imaging with [^18F]-14 illustrated that the majority of tracer accumulation in the brain was localized to the tumor, with modest accumulation that exceeded plasma in contralateral, non-tumor brain (FIGS. 1B & 1C). The tumor-selective characteristics of [^18F]-14 afforded excellent imaging contrast between tumor and contralateral tissue. FIG. 1G illustrates time—activity curves (TACs) typical of representative studies for tumor (blue), normal brain (green), and plasma (red) over a 90-min dynamic acquisition.
All studies involving animals were conducted in compliance with federal and institutional guidelines. Two weeks before imaging, healthy male Wistar rats were stereotactically inculcated in the right hemisphere with 1.0×10^5 C6 glioma cells (American Type Tissue Collection). Prior to imaging, all rats were affixed with venous and arterial catheters.
PET/CT was performed within 24 hours of MRI in rats with confirmed tumors. Tumor-bearing rats were administered [^18F]-14 via jugular catheter while in a microPET Focus 220 scanner (Siemens, Munich, Del.). […]

[7] = Radio-TLC radiometabolite analysis of plasma; assay type: in vivo, rat; settings: plasma samples, n=2, preliminary
Procedure: as §3
Arterial blood (500 μL) was collected at 2, 12, 30, and 60 minutes following injection of 1.5 mCi of [^18F]-14. After centrifugation, the plasma was extracted with acetonitrile/water (50 μL, 7/1, v/v). The mixture was then centrifuged and the supernatant used for TLC analysis in 10% dichloromethane in methanol. Radiochromatographic data were recorded and collected using a radioisotope detector (Bioscan, Washington, D.C., USA).

TSPO [8] = target: T1, TSPO; test: In vivo PET displacement study with non-radioactive 14 in C6-bearing rats; design: frozen and thawed three times in lysis buffer; endogenous in cells; host or cells: C6 rat glioma cells
Procedure: Specific Binding of [^18F]-14 in Rats. To evaluate the in vivo TSPO specificity of [^18F]-14, the present inventors performed displacement studies in C6-bearing rats using the non-radioactive analog (14). As shown in the TAC in FIG. 1H, during the dynamic PET study, a bolus (IV) infusion of nonradioactive 14 (10 mg/kg) was administered approximately 30 minutes after injection of [^18F]-14. […] During tumor displacement, the present inventors observed a minor influx of tracer into normal brain (green). The displaced [^18F]-14 then rapidly cleared the normal brain and entered the plasma, subsequently elevating plasma (red) radioactivity.
PET/CT was performed within 24 hours of MRI in rats with confirmed tumors. Tumor-bearing rats were administered [^18F]-14 via jugular catheter while in a microPET Focus 220 scanner (Siemens, Munich, Del.). Data were collected in list-mode format for 90 minutes, followed by a CT scan (microCAT II; Siemens) for attenuation correction.
The dynamic PET acquisition was divided into twelve 10-s frames for the first two minutes, three 60-second frames for the following three minutes, and seventeen 300-second frames for the duration of the scan. The raw data within each frame were then binned into three-dimensional sinograms, with a span of three and ring difference of 47. […]

PBR = PBR (Homo sapiens, UniProt P30536); settings: cited from earlier work
Sequence of PBR (P30536 whole entry, species assumed): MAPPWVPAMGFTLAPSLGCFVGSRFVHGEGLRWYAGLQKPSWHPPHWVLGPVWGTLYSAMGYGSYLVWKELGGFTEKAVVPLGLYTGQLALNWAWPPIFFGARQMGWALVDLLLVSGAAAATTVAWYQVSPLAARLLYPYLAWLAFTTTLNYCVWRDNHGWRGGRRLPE

[9] = target: central benzodiazepine receptor (CBR); test: CBR binding assay, displacement of [3H]flunitrazepam in rat brain (cerebral cortex) lysate; settings: rat brain lysate / cerebral cortex membranes; selectivity for TSPO over CBR; read-out: Ki versus [3H]flunitrazepam
Procedure: as §1
The homogenate was collected at a protein concentration of 5.0 mg/mL and stored at −80° C. […] All experiments were performed in triplicate.

[10] = Ki ± S.E.M. versus [3H]PK11195, rat heart lysate, triplicate
[11] = Ki ± S.E.M. versus [3H]PK11195, C6 lysate, high-affinity value where binding is mixed, triplicate, read-out: C6 Glioma Ki
[12] = versus [3H]PK11195, C6 lysate, low-affinity component, read-out: C6 Glioma Ki, low-affinity binding (mixed affinity binding)

Structure (SMILES): CCc1cc(CC)n2nc(-c3ccc(OCCNC(=S)Nc4ccc5c(c4)C(=O)OC54c5ccc(O)cc5Oc5cc(O)ccc54)cc3)c(CC(=O)N(CC)CC)c2n1 [Compound 23]
- Ki (TSPO [1]): 13.8 ± 4.99 nM

Structure (SMILES): CCc1cc(CC)n2nc(-c3ccc(OCCCCCCCNC(=S)Nc4ccc5c(c4)C(=O)OC54c5ccc(O)cc5Oc5cc(O)ccc54)cc3)c(CC(=O)N(CC)CC)c2n1 [Compound 28]
- Ki (TSPO [1]): 16.3 ± 5.01 nM

Structure (SMILES): CCc1cc(CC)n2nc(-c3ccc(OCCCCCCNC(=S)Nc4ccc5c(c4)C(=O)OC54c5ccc(O)cc5Oc5cc(O)ccc54)cc3)c(CC(=O)N(CC)CC)c2n1 [Compound 27]
- Ki (TSPO [1]): 11.7 ± 4.86 nM

Structure (SMILES): CN(C)C(=O)Cc1nn(-c2ccccc2F)c(=O)c2c1c1ccc(Cl)cc1n2C [Compound 9, 2-(7-Chloro-3-(2-fluorophenyl)-5-methyl-4-oxo-4,5-dihydro-3H-pyridazino[4,5-b]indol-1-yl)-N,N-dimethylacetamide]
- Ki (TSPO [2]; read-out: Kidney Ki): 0.00118 ± 4e-05 nM

Structure (SMILES): CCc1cc(CC)n2nc(-c3ccc(OCCCNC(=S)Nc4ccc5c(c4)C(=O)OC54c5ccc(O)cc5Oc5cc(O)ccc54)cc3)c(CC(=O)N(CC)CC)c2n1 [Compound 24]
- Ki (TSPO [1]): 111 ± 25.6 nM

Structure (SMILES): CCc1cc(CC)n2nc(-c3ccc(OCC[18F])cc3)c(CC(=O)N(CC)CC)c2n1 [[^18F]-2b, 2-(5,7-diethyl-2-(4-(2-[^18F]fluoroethoxy)phenyl)pyrazolo[1,5-a]pyrimidin-3-yl)-N,N-diethylacetamide]
- enhancement in affinity compared to [18F]-2a (TSPO [3]; TSPO): 36 fold

Structure (SMILES): CN(C)C(=O)Cc1nn(-c2ccccn2)c(=O)c2c1c1ccc(Cl)cc1n2C [Compound 13, 2-(7-Chloro-5-methyl-4-oxo-3-(pyridin-2-yl)-4,5-dihydro-3H-pyridazino[4,5-b]indol-1-yl)-N,N-dimethylacetamide]
- Ki (TSPO [4]): 4.94 nM
- Heart Ki (TSPO [4]; [10]): did not appreciably bind TSPO
- C6 Glioma Ki (TSPO [5]; Ki ± S.E.M. versus [3H]PK11195, C6 lysate, high-affinity value where binding is mixed, triplicate): did not appreciably bind TSPO
- Ki (TSPO [5]; [11]): 2.41 nM
- Kidney Ki (TSPO [2]; Ki ± S.E.M. versus [3H]PK11195, rat kidney lysate, high-affinity value where binding is mixed, triplicate): did not appreciably bind TSPO
- Ki (TSPO [2]; read-out: Kidney Ki): 6.8 nM

Structure (SMILES): CN1C(=O)CN=C(c2ccccc2F)c2cc([N+](=O)[O-])ccc21 [flunitrazepam]
- Kd [6]: 1.1 nM

Structure (SMILES): COc1ccc(OC)c(CN(C(=O)CF)c2ccccc2Oc2ccccc2)c1 [Compound 1, reference compound]
- Ki (TSPO [3]; read-out: Ki for TSPO in C6 glioma (reported), literature values): 6.17 nM

Structure (SMILES): CCc1cc(CC)n2nc(-c3ccc(OCCCCCNC(=S)Nc4ccc5c(c4)C(=O)OC54c5ccc(O)cc5Oc5cc(O)ccc54)cc3)c(CC(=O)N(CC)CC)c2n1 [Compound 26]
- Ki (TSPO [1]): 185 ± 15.4 nM

Structure (SMILES): CN(C)C(=O)Cc1nn(-c2cccc([18F])n2)c(=O)c2c1c1ccc(Cl)cc1n2C [[^18F]-14, 7-chloro-N,N,5-trimethyl-4-oxo-3(6-[^18F]fluoropyridin-2-yl)-3,5-dihydro-4H-pyridazino[4,5-b]indole-1-acetamide]
- tracer accumulation in normal brain and tumor (C6 glioma; preclinical model of glioma (C6), PET): modest accumulation in normal brain, yet robust accumulation in tumor tissue
- plasma clearance of tracer (C6 glioma; time-activity curve, 90-min dynamic acquisition): quickly cleared the plasma
- % parent at 60 min [7]: > 90%
- tumor binding after injection of 14, % of the peak tumor uptake (TSPO [8]; bolus IV nonradioactive 14 (10 mg/kg) about 30 min after tracer): approximately 40%
- displaceability by non-radioactive 14 (TSPO [8]; non-radioactive 14 given halfway through the PET scan): fully displaceable

Structure (SMILES): CN(C)C(=O)Cc1nn(-c2ccc(F)cc2)c(=O)c2c1c1ccc(Cl)cc1n2C [Compound 12, 2-(7-Chloro-3-(4-fluorophenyl)-5-methyl-4-oxo-4,5-dihydro-3H-pyridazino[4,5-b]indol-1-yl)-N,N-dimethylacetamide]
- Ki (TSPO [5]; [12]): 3.02 ± 1.01 nM
- Ki (TSPO [2]; read-out: Kidney Ki, low-affinity binding (mixed affinity binding)): 0.969 nM

Structure (SMILES): COc1ccc(OC)c(CN(C(C)=O)c2cc(F)ccc2Oc2ccccc2)c1 [DAA1106]
- binding affinity for PBR (PBR): fentomolar

Structure (SMILES): CCc1cc(CC)n2nc(-c3ccc(OCCCCCCCCNC(=S)Nc4ccc5c(c4)C(=O)OC54c5ccc(O)cc5Oc5cc(O)ccc54)cc3)c(CC(=O)N(CC)CC)c2n1 [Compound 29]
- Ki (TSPO [1]): 0.31 ± 0.02 nM

Structure (SMILES): CN(C)C(=O)Cc1nn(-c2cccc(F)n2)c(=O)c2c1c1ccc(Cl)cc1n2C [Compound 14, 2-(7-Chloro-3-(6-fluoropyridin-2-yl)-5-methyl-4-oxo-4,5-dihydro-3H-pyridazino[4,5-b]indol-1-yl)-N,N-dimethylacetamide]
- Ki (TSPO [4]; [10]): 0.00321 ± 0.0004 nM
- Ki (TSPO [5]; [11]): 0.00119 nM
- increase in potency over 2b (TSPO [5]; TSPO, in our lab): 1000 fold
- Ki (TSPO [5]; [12]): 1.77 nM
- Ki (TSPO [2]; Ki ± S.E.M. versus [3H]PK11195, rat kidney lysate, high-affinity value where binding is mixed, triplicate, read-out: Kidney Ki): 0.00221 ± 0.0004 nM
- Ki [9]: > 10000 nM

Structure (SMILES): CN(C)C(=O)Cc1nn(-c2cccc([N+](=O)[O-])c2)c(=O)c2c1c1ccc(Cl)cc1n2C [Compound 11, 2-(7-Chloro-5-methyl-3-(3-nitrophenyl)-4-oxo-4,5-dihydro-3H-pyridazino[4,5-b]indol-1-yl)-N,N-dimethylacetamide]
- Ki (TSPO [4]): 0.00118 ± 9e-05 nM

Structure (SMILES): CN(C)C(=O)Cc1nn(-c2cccc(Cl)n2)c(=O)c2c1c1ccc(Cl)cc1n2C [Compound 15, 2-(7-Chloro-3-(6-chloropyridin-2-yl)-5-methyl-4-oxo-4,5-dihydro-3H-pyridazino[4,5-b]indol-1-yl)-N,N-dimethylacetamide]
- Ki (TSPO [5]; [11]): 0.00234 ± 0.0004 nM

Structure (SMILES): CN(C)C(=O)Cc1nn(-c2cccc(Br)n2)c(=O)c2c1c1ccc(Cl)cc1n2C [Compound 16, 2-(7-Chloro-3-(6-bromopyridin-2-yl)-5-methyl-4-oxo-4,5-dihydro-3H-pyridazino[4,5-b]indol-1-yl)-N,N-dimethylacetamide]
- Ki (TSPO [5]; [11]): 0.00148 ± 0.0002 nM
